In general, mortality refers to the share of the test organisms that died.

Holding throughout (format): in vivo
One experiment concerns Rhipicephalus sanguineus. In words: Rhipicephalus sanguineus in vitro contact test with adult brown dog ticks. The conditions noted are these: application rate 5 μg/cm^2 (=500 g/ha), after 48 h, adult dog ticks dead or moribund. How it is done:
Rhipicephalus sanguineus—In Vitro Contact Tests with Adult Brown Dog Ticks
For the coating of the test tubes, 9 mg of active ingredient are first dissolved in 1 ml of acetone p.a. and then diluted to the desired concentration with acetone p.a. 250 μl of the solution are distributed homogeneously on the inner walls and the base of a 25 ml glass tube by turning and rocking on an orbital shaker (rocking rotation at 30 rpm for 2 h). With 900 ppm of active ingredient solution and internal surface area 44.7 cm^2, given homogeneous distribution, an area-based dose of 5 μg/cm^2 is achieved.
After the solvent has evaporated off, the tubes are populated with 5-10 adult dog ticks (Rhipicephalus sanguineus), sealed with a perforated plastic lid and incubated in a horizontal position in the dark at room temperature and ambient humidity. After 48 h, efficacy is determined. To this end, the ticks are knocked to the base of the tube and incubated on a hotplate at 45-50° C. for not more than 5 min. Ticks which remain motionless on the base or move in such an uncoordinated manner that they are unable to deliberately avoid the heat by climbing upwards are considered to be dead or moribund.
An efficacy of 100% means that all the ticks were dead or moribund. 0% efficacy means that none of the ticks were harmed.

The subject of another experiment is Spodoptera frugiperda. Nature of the experiment: Spodoptera frugiperda spray test (SPODFR).
A further experiment deals with Tetranychus urticae. In words: Tetranychus urticae spray test, OP-resistant (TETRUR). As to conditions: for efficacy: spray, after 6 days.
The test system of experiment [1] is Anopheles gambiae strain RSPH (homozygot kdr). Nature of the experiment: Anopheles test (ANPHGB surface treatment). The conditions noted are these: application rate 100 mg/m^2, glazed tile, exposure 30 minutes, 24 hours after contact, read-out: efficacy (mortality). The procedure: Anopheles Test (ANPHGB Surface Treatment)
(§1) Solvent: acetone+2000 ppm rapeseed oil methyl ester (RME)
To produce a suitable active compound formulation, the active compound is dissolved in the solvent (2 mg/ml). The active compound formulation is pipetted onto a glazed tile and, after it has dried off, adult mosquitoes of the species Anopheles gambiae strain RSPH (homozygot kdr) are placed onto the treated tile. The exposure time is 30 minutes.
(§2) 24 hours after contact with the treated surface, mortality in % is determined. 100% means that all mosquitoes have been killed; 0% means that none of the mosquitoes have been killed.

Experiment [2] concerns Anopheles funestus strain FUMOZ-R. Nature of the experiment: Anopheles test (ANPHFU surface treatment). As to conditions: application rate 100 mg/m^2, glazed tile, exposure 30 minutes, 24 hours after contact, read-out: efficacy (mortality). The procedure: Anopheles Test (ANPHFU Surface Treatment)
as §1
To produce a suitable active compound formulation, the active compound is dissolved in the solvent (2 mg/ml). The active compound formulation is pipetted onto a glazed tile and, after it has dried off, adult mosquitoes of the species Anopheles funestus strain FUMOZ-R (Hunt et al., Med Vet Entomol. 2005 September; 19(3):271-5) are placed onto the treated tile. The exposure time is 30 minutes.
as §2

The subject of experiment [3] is Aedes aegypti strain MONHEIM. Nature of the experiment: Aedes test (AEDSAE surface treatment). The conditions noted are these: application rate 100 mg/m^2, glazed tile, exposure 30 minutes, 24 hours after contact, read-out: efficacy (mortality). How it is done:
Aedes Test (AEDSAE Surface Treatment)
as §1
To produce a suitable active compound formulation, the active compound is dissolved in the solvent (2 mg/ml). The active compound formulation is pipetted onto a glazed tile and, after it has dried off, adult mosquitoes of the species Aedes aegypti strain MONHEIM are placed onto the treated tile. The exposure time is 30 minutes.
as §2

The next experiment relates to Myzus persicae. In words: Myzus persicae oral test. The conditions noted are these: application rate 4 ppm, after 5 days. The procedure:
To produce a suitable active compound preparation, 1 part by weight of active compound is dissolved with the specified amounts by weight of solvent and made up to the desired concentration with water.
50 ul of the active compound preparation are transferred to microtiter plates and made up to a final volume of 200 μl with 150 μl of IPL41 insect medium (33%+15% sugar). Then the plates are sealed with parafilm through which a mixed population of the green peach aphid (Myzus persicae), which is located in a second microtiter plate, can pierce and absorb the solution.
After 5 days, the efficacy in % is determined. 100% means that all the aphids have been killed; 0% means that no aphids have been killed.

On to `O=C(NC1CC1)c1cc(-c2cnn(-c3c(Cl)cc(C(F)(C(F)(F)F)C(F)(F)F)cc3Cl)c2)sc1Br` [I-T1-1], for which the efficacy in the experiment with Rhipicephalus sanguineus and in the experiment with Tetranychus urticae (application rate 20 g/ha) was 100% each time. The Emax at 100 g/ha in the experiment with Spodoptera frugiperda (Spodoptera frugiperda, 168 h, SPODFR, 100 g ai/ha, 7 dat, read-out: % efficacy dat) was 100%; in the experiment with Tetranychus urticae (Tetranychus urticae, 144 h, TETRUR, 100 g ai/ha, 6 dat, read-out: % efficacy dat), 70%. The pest or weed control at 100 g/ha with Spodoptera frugiperda (Spodoptera frugiperda, 168 h, application rate 100 g/ha, spray, after 7 days, read-out: efficacy) turned out to be 100%. For the same compound, the mortality at 100 mg/m2 in experiment [1], in experiment [2] and in experiment [3] was 80 to 100% in each case.

As for `Cc1sc(-c2cnn(-c3c(Cl)cc(C(F)(C(F)(F)F)C(F)(F)F)cc3Cl)c2)cc1C(=O)NC1CC1` [I-T1-11], the efficacy in the experiment on Rhipicephalus sanguineus stood at 100%; in the experiment on Myzus persicae, 90%; with Spodoptera frugiperda (application rate 100 g/ha, spray, after 7 days), 100%; with Tetranychus urticae (application rate 20 g/ha) it was 100%; in the experiment with Tetranychus urticae (application rate 100 g/ha) it was 100%.

The values above are taken from patent US11825838B2, “Tricyclic carboxamides for controlling arthropods” (Bayer CropScience Aktiengesellschaft, priority 2017, dated 2023).
